Here are results for four compounds from ChEMBL document CHEMBL1201862, “PubChem BioAssay data set” (2004).

The source made the active and inactive calls.

Experiment [1] in a line: DNA binding of candidate compounds, dose response, artefact control for RAD54 inhibitor project, biochemical, fluorescence polarization, cherry-pick (AID 651673). The experiment is classed as functional. A general note: Polarisation of emitted light reports the rotation of a fluorescent probe.
Experiment [2] addresses T1, Tyrosine-protein phosphatase non-receptor type 7 (Homo sapiens, UniProt P35236).
T1 sequence (P35236 whole entry): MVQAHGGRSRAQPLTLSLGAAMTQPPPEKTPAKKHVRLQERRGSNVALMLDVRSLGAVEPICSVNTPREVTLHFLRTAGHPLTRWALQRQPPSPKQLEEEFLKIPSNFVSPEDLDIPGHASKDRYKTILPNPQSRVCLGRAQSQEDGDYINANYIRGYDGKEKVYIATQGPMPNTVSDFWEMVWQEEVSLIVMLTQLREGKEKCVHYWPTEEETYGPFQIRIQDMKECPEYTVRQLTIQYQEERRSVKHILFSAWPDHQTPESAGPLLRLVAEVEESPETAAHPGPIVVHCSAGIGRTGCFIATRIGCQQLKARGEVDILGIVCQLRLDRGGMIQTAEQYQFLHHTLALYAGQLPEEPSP
The experiment is classed as functional.

The target in experiment [3] is Voltage-gated N-type calcium channel alpha-1B subunit/Amyloid beta A4 precursor protein-binding family A member 1 (Homo sapiens, UniProt Q00975+Q02410). The class given is protein assay.
Chain of Voltage-gated N-type calcium channel alpha-1B subunit/Amyloid beta A4 precursor protein-binding family A member 1 (Q00975 whole entry): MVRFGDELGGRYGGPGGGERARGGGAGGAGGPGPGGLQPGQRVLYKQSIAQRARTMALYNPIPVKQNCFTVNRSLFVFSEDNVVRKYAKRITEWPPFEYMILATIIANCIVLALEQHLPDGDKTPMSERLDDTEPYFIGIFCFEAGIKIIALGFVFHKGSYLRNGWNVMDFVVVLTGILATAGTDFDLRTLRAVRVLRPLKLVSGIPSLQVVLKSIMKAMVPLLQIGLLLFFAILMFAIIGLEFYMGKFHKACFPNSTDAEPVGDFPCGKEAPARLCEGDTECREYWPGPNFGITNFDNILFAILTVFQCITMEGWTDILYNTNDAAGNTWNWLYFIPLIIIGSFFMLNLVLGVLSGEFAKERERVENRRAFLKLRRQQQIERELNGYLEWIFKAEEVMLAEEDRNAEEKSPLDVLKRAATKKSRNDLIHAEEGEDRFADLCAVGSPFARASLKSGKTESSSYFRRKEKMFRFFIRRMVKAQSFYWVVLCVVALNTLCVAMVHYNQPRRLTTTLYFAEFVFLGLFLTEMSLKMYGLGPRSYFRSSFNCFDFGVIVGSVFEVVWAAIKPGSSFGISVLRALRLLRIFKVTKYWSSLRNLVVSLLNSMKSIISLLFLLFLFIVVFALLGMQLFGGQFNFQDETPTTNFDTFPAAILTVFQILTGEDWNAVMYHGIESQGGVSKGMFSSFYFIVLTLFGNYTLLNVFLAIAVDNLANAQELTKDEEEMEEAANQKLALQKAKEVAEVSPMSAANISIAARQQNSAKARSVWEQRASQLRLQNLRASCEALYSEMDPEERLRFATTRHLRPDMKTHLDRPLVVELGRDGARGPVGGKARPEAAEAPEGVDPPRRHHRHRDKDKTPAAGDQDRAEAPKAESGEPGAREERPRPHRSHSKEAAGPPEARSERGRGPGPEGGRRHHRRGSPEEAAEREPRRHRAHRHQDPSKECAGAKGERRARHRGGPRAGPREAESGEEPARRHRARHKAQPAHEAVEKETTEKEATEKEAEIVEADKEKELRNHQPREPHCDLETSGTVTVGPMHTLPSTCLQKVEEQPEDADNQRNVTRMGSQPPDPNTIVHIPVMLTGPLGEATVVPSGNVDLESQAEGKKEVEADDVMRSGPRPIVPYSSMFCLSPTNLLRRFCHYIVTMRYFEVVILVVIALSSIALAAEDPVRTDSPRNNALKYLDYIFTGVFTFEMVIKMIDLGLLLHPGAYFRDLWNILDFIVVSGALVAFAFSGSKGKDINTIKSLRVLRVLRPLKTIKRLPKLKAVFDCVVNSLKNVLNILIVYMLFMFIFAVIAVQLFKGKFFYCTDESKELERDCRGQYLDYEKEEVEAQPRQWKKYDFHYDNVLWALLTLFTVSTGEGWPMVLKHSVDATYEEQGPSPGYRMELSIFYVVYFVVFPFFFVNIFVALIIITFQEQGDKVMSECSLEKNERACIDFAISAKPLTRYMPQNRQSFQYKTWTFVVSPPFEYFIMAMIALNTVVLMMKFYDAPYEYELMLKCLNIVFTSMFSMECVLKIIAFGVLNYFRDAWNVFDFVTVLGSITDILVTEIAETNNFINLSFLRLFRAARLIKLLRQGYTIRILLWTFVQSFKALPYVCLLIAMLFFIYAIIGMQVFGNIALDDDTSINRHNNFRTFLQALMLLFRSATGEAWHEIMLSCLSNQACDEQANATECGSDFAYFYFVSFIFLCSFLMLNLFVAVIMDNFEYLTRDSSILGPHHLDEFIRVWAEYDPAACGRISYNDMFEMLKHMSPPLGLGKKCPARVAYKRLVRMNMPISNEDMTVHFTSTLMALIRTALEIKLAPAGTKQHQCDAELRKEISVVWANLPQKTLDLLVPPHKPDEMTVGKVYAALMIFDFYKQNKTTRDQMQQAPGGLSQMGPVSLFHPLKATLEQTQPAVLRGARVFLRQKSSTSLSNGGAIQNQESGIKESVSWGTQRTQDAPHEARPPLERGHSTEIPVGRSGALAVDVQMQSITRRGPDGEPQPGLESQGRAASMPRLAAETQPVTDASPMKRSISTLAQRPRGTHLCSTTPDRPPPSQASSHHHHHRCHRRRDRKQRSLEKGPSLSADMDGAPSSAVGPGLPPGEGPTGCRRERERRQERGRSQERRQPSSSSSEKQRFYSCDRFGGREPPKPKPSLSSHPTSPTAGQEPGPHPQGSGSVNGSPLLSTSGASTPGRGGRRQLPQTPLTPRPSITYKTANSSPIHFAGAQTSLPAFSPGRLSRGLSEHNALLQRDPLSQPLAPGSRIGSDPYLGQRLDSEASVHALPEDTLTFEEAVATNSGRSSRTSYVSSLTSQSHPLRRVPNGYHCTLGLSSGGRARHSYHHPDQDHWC
Chain of Voltage-gated N-type calcium channel alpha-1B subunit/Amyloid beta A4 precursor protein-binding family A member 1 (Q02410 whole entry): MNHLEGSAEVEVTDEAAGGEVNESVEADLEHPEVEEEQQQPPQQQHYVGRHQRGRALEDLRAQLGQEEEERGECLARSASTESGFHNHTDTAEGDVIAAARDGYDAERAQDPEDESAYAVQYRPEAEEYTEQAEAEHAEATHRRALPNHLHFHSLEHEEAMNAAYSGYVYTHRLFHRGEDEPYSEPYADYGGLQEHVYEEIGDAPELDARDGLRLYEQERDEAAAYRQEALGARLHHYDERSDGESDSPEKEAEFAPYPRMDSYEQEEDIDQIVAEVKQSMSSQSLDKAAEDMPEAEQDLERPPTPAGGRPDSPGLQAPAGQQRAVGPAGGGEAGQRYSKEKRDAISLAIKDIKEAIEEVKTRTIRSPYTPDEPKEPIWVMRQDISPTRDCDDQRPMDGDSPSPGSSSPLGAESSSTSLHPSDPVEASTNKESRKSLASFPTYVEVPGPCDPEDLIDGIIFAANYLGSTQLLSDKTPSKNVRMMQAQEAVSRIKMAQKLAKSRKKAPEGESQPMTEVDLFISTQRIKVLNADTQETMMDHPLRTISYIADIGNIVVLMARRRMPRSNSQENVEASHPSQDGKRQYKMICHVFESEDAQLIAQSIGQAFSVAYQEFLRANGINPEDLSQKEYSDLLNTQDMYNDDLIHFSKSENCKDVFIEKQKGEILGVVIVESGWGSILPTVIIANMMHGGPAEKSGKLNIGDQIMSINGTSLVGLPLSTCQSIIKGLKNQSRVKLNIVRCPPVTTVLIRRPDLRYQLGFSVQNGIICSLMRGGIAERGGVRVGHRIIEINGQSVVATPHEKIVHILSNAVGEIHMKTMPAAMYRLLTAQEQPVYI
Experiment [4] concerns the target Eukaryotic translation initiation factor 4E (Mus musculus, UniProt P63073). The experiment is described as follows: eIF4E–eIF4G protein interaction inhibitors, dose response, biochemical, TR-FRET (AID 855).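 Note: potency for disrupting eIF4E binding to eIF4GI seen as loss of FRET.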 The experiment is classed as functional. Background: TR-FRET usually uses a lanthanide donor and a delayed reading to cut background.
For experiment [5], the target named is T2, Small ubiquitin-related modifier 2 (Homo sapiens, UniProt P61956). The experiment is described as follows: SUMO2–SIM peptide binding inhibitors, dose response, selectivity assay for SUMO1 interaction inhibitor project, biochemical, fluorescence polarization, uHTS hits (AID 624385). The note with it: read-out: IC50_Mean. The class given is functional.
T2 sequence (P61956 whole entry): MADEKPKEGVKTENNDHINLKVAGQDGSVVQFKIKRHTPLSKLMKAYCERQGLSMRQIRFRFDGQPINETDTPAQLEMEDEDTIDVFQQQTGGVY
Experiment [6] has as its target T2, Small ubiquitin-related modifier 2. The experiment is described as follows: inhibitors of SUMO2 protein-protein interaction, dose response, selectivity assay for SUMO1 interaction inhibitor project, biochemical, FRET, human SUMO2, uHTS hits (AID 624384). The experiment is classed as functional. The note with it: read-out: IC50_Mean.
The test system of a further experiment is BJ. The experiment is described as follows: cytotoxicity toward BJ-TERT fibroblasts, dose response, cell-based, RAS-independent, luminescence (AID 1933). The class given is functional. Particulars: Homo sapiens.
For experiment [7], the target named is T3, Heat shock factor protein 1 (Mus musculus, UniProt P38532).
T3 sequence (P38532 whole entry): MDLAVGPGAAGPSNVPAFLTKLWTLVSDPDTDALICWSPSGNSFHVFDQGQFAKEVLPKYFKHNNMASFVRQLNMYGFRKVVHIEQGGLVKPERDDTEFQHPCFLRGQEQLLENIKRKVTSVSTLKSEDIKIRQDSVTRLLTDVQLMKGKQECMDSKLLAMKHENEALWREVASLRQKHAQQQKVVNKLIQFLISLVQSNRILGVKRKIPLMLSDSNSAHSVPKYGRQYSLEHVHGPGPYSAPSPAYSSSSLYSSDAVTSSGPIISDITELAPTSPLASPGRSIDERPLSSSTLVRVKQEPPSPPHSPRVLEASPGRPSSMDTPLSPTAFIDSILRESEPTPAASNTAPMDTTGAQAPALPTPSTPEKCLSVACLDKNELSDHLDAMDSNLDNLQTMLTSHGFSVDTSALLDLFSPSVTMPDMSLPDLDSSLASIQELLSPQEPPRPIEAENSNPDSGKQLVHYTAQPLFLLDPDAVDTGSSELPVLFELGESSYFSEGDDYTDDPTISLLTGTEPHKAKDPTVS
The experiment is described as follows: inhibition of MG132-induced HSE-luciferase signal, confirmation, cell-based, NIH3T3, luminescence, dose retest (AID 2382).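 Note: NIH3T3 fibroblasts with HSF1-driven luciferase reporter stressed by proteasome inhibitor MG132; luminescence from HSF1-driven luciferase expression after 8 hours of MG132 stress.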 The experiment is classed as functional.

The next experiment has as its system Jurkat. The experiment is described as follows: antigen receptor-induced NF-kB inhibitors, dose response, Jurkat, luciferase reporter, luminescence, B- and T-cell (AID 489004).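 Note: NF-kB luciferase reporter Jurkat cells stimulated with PMA plus ionomycin.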 Particulars: Homo sapiens. The experiment is classed as functional, cell-based. For orientation: A reporter such as luciferase makes a cellular process visible.
The next experiment has as its system Vero. The experiment is described as follows: Vero cell cytotoxicity, cytotoxicity control for flavivirus capping enzyme inhibitors (AID 588742). The experiment is classed as functional. The note with it: Chlorocebus sabaeus.
In a further experiment the target is Nonstructural protein 1 (Influenza A virus, UniProt Q194T2). The experiment is classed as functional, Influenza A virus (A/California/07/2009(H1N1)).
Chain of Nonstructural protein 1 (Q194T2 whole entry): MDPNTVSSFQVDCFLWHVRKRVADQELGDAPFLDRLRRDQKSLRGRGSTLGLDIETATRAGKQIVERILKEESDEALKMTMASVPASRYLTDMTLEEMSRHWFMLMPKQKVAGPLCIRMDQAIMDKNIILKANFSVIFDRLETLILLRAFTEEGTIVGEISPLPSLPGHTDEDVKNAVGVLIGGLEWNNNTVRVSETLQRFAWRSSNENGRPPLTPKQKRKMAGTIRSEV
The target in experiment [8] is T4, Rac GTPase-activating protein 1 (Homo sapiens, UniProt Q9H0H5).
T4 sequence (Q9H0H5 whole entry): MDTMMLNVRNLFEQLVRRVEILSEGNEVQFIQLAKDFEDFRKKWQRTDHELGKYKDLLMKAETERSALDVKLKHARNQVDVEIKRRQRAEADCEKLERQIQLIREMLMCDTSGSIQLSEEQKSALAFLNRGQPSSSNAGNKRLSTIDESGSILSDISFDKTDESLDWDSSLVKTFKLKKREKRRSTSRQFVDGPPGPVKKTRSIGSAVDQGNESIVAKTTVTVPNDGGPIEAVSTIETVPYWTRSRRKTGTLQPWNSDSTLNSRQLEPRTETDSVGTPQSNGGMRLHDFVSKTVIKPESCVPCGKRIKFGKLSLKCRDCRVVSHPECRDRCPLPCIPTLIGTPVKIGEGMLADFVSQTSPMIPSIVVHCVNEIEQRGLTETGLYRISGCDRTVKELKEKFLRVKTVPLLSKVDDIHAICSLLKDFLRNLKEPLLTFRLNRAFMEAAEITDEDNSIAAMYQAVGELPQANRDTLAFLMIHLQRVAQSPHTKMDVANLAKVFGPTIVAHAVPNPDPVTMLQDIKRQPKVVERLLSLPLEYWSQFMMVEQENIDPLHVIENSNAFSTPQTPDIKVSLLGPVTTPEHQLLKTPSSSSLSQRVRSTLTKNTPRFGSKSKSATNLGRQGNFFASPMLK
The experiment is described as follows: MgcRacGAP GTPase-activating activity inhibitors, confirmation, biochemical, ADP Hunter fluorescence, primary and confirmatory (AID 624330). The class given is functional.

Experiment [9] deals with Matrix metalloproteinase-14 (Homo sapiens, UniProt P50281). The experiment is described as follows: Dose Response confirmation of uHTS hits for a small molecule inhibitors of MT1-MMP activation in a fluorescence assay set 1. The experiment is classed as functional.

Chain of Eukaryotic translation initiation factor 4E (P63073 whole entry): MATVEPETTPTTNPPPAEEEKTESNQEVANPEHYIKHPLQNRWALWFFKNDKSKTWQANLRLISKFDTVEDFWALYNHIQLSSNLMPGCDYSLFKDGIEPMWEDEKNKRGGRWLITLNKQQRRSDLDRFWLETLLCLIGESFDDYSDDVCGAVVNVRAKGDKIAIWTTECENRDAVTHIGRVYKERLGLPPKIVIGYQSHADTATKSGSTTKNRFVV

As for `CCN(CC)CCN1C(=O)c2cccc3cc(N)cc(c23)C1=O`, in experiment [1], the AC50 was 56.9 µM (active).

As for `O=C(O)c1cccc(-n2cccc2/C=C2/NC(=O)N(c3ccc(Cl)cc3)C2=O)c1`, the IC50 in [2] is 4.89 µM (active); in [3] it was 12.1 µM (active); in experiment [4] it was 4.43 µM (active); in experiment [5], 66 µM (inactive); in experiment [6] it was 0.752 µM (active).

In the case of `C=C1C(=O)O[C@@H]2C[C@@H](C)[C@@H]3C=CC(=O)[C@@]3(C)[C@@H](OC(=O)CC(=O)O[C@H]3[C@@H]4C(=C)C(=O)O[C@@H]4C[C@@H](C)[C@@H]4C=CC(=O)[C@]43C)[C@H]12`, the EC50 was 0.354 µM (inconclusive) in the experiment with BJ and 0.98 µM (active) in experiment [7]. For the same compound, the IC50 in the experiment with Jurkat is 0.29 µM (active). Further, in the experiment with Vero, the CC50 was 1.64 µM (active).

`O=S(=O)(O)c1cc(Cl)cc(N=Nc2ccc(O)cc2O)c1O`: the values for the IC50 (at Nonstructural protein 1; in experiment [8]; in experiment [9]) were 8.3 µM (active), 83.7 µM (active) and 1.41 µM (active), respectively.

For orientation: AC50 means the midpoint of the concentration-response curve, whichever way the signal moves. The term EC50 denotes the concentration that produces a half-maximal response. By CC50 is commonly meant the concentration at which the toxic effect on the cells reaches its halfway point.
